For one experiment, the target named is Cbl-b (Homo sapiens (Human), UniProt Q13191). Put plainly: Cbl-b LCK Ub TR-FRET assay (Cbl-b Lck HTRF). It is filed as biochemical. As to conditions: for IC50: Cbl-b LCK Ub TR-FRET; for fold-selectivity (Cbl-b over C-cbl) / (fold-selectivity) Cbl-b and C-Cbl Selectivity: ratio C-cbl Lck HTRF IC50 / Cbl-b Lck HTRF IC50. Here is the method:
(§1) 6 μL of detection mixture was added to all wells and briefly centrifuged before incubating for 20 min at room temperature. […] IC50 was generated using no LCK as the low control and DMSO as the high control.

The next experiment concerns the target c-Cbl (Homo sapiens (Human), UniProt P22681). Put plainly: C-Cbl LCK Ub TR-FRET assay (C-cbl Lck HTRF). Type of experiment: biochemical. Here is the method: as §1
For orientation: Time-resolved FRET reads energy transfer from a long-lived donor to a nearby acceptor.

Molecules are shown by their SMILES.

Usually IC50 stands for the concentration at which inhibition is half-maximal. A high value points to weaker potency in that assay.

Sequence of Cbl-b (Q13191 40-426): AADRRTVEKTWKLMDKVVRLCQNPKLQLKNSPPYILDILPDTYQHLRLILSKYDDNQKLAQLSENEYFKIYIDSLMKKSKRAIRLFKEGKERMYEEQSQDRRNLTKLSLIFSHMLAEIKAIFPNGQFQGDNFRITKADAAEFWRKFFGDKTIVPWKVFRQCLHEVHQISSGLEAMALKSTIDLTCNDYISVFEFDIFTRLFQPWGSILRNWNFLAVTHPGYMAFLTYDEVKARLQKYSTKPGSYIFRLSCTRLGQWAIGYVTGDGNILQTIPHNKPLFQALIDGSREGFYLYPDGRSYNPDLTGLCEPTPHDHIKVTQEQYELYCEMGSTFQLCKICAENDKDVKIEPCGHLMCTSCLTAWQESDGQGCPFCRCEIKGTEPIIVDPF
Sequence of c-Cbl (P22681 47-435): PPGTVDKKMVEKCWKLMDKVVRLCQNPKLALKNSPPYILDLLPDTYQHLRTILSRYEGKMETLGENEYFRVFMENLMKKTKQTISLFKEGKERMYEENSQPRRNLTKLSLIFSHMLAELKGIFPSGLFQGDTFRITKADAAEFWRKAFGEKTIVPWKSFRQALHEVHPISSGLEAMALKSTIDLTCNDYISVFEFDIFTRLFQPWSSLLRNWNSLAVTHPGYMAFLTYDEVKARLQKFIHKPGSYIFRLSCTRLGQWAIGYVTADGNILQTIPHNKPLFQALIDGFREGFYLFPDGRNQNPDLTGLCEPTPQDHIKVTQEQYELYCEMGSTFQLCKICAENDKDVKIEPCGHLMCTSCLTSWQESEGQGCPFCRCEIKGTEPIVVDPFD

Take `COc1cc([C@H](c2nncn2C)C2COC2)cc(N2Cc3c(cc(CNC4(C)CCC4)cc3C(F)(F)F)C2=O)c1` (single isomer, unassigned) [Compound 338]: at Cbl-b, 3.8 µM corresponded to half-maximal inhibition (IC50) and the “fold-selectivity (Cbl-b over C-cbl)” value is 1.6x. Further, at c-Cbl, 6 µM corresponded to half-maximal inhibition (IC50).
For `Cn1cnnc1[C@@H](c1cccc(N2Cc3c(cc(CNC4(C)CCC4)cc3C(F)(F)F)C2=O)c1)n1ccnc1` (single isomer, unassigned) [Compound 344], at Cbl-b, the half-inhibitory concentration (IC50) was at least 20 µM and the “fold-selectivity (Cbl-b over C-cbl)” value was determined as 1x. This compound also came in with an IC50 on c-Cbl of 20 µM.
For the compound `Cn1nnnc1[C@H](c1cccc(N2Cc3c(cc(CNC4(C)CCC4)cc3C(F)(F)F)C2=O)c1)C1COC1` (single isomer, unassigned) [Compound 349], the IC50 was at least 20 µM against Cbl-b and 20 µM against c-Cbl. Moreover, the “fold-selectivity (Cbl-b over C-cbl)” value on Cbl-b came out at 1x.
The corresponding values for `Cn1ccnc1[C@H](c1cccc(N2Cc3c(cc(CNC4(C)CCC4)cc3C(F)(F)F)C2=O)c1)C1COC1` (single isomer, unassigned) [Compound 353] are 9.6 µM, 20 µM and 2.1x.
Regarding `Cn1cnnc1C(c1cccc(N2Cc3c(cc(CNC4(C)CCC4)cc3C(F)(F)F)C2=O)c1)[C@H]1C[C@@H](Cl)C1` (single isomer, unassigned) [Compound 354], at Cbl-b, the IC50 came to 0.07 µM and the “fold-selectivity (Cbl-b over C-cbl)” value is recorded as 8.3x. At c-Cbl, this compound came in with a 50% inhibitory concentration (IC50) of 0.58 µM.
With `Cn1cnnc1C(c1cccc(N2Cc3c(cc(CNC4(C)CCC4)cc3C(F)(F)F)C2=O)c1)[C@H]1C[C@H](Cl)C1` (single isomer, unassigned) [Compound 355], at Cbl-b, the IC50 came to 0.15 µM and the “fold-selectivity (Cbl-b over C-cbl)” value came to 13x. On c-Cbl, half-maximal inhibition (IC50) was put at 2 µM.
For the compound `CC[C@H](c1cccc(N2Cc3c(Cl)cc(CNC4(C)CCC4)cc3C2=O)c1)c1nncn1C` (single isomer, unassigned) [Compound 358], the figures for the IC50 at Cbl-b and against c-Cbl were 0.14 µM and 0.48 µM, respectively. In addition, the “fold-selectivity (Cbl-b over C-cbl)” value at Cbl-b turned out to be 3.5x.
With `CO[C@H]1C[C@](O)(C(c2cccc(N3Cc4c(cc(CNC5(C)CCC5)cc4C(F)(F)F)C3=O)c2)c2nncn2C)C1` (single isomer, unassigned) [Compound 367], at Cbl-b, the midpoint of inhibition, the IC50, lay at 7.1 µM and the “fold-selectivity (Cbl-b over C-cbl)” value was 1.7x. The IC50 at c-Cbl is 12 µM.
For `CO[C@H]1C[C@](O)(C(c2cccc(N3Cc4c(cc(CNC5(C)CCC5)cc4C(F)(F)F)C3=O)c2)c2nncn2C)C1` (single isomer, unassigned) [Compound 368], in that order: 4 µM, 1.6x and 6.4 µM.
The corresponding values for `CC[C@](O)(c1cccc(N2Cc3c(cc(CNC4(C)CCC4)cc3C(F)(F)F)C2=O)c1)c1nncn1C` (single isomer, unassigned) [Compound 391] are 0.85 µM, 1.0x and 0.86 µM.
Regarding `Cn1cnnc1[C@H](c1cccc(N2Cc3c(cc(CNC4(C)CCC4)cc3C(F)(F)F)C2=O)c1)C1CC(OC(F)(F)F)C1` (single isomer, unassigned) [Compound 396], on Cbl-b, the half-inhibitory concentration (IC50) is 0.1 µM and the “fold-selectivity (Cbl-b over C-cbl)” value is listed as 1.7x. This compound showed an IC50 on c-Cbl of 0.17 µM.
For `CC(=O)N(C)[C@@H](c1cccc(N2Cc3c(cc(CNC4(C)CCC4)cc3C(F)(F)F)C2=O)c1)c1nncn1C` (single isomer, unassigned) [Compound 400], in that order: at least 20 µM, 1.0x and 20 µM.
The corresponding values for `CC(=O)N1CC([C@H](c2cccc(N3Cc4c(cc(CNC5(C)CCC5)cc4C(F)(F)F)C3=O)c2)c2nncn2C)C1` (single isomer, unassigned) [Compound 401] are 8.5 µM, 1.6 x and 13 µM.
Turning to `C[C@@H](NC1(C)CCC1)c1cc2c(c(C(F)F)c1)CN(c1cccc([C@@H](c3nncn3C)C3COC3)c1)C2=O` (single isomer, unassigned) [Compound 406], the figures for the IC50 against Cbl-b (Example 121) and on c-Cbl were 9.9 µM and 20 µM, respectively. In addition, on Cbl-b, the “(fold-selectivity) Cbl-b and C-Cbl Selectivity” value is 2.0x.
Consider `Cn1cnnc1[C@@](O)(c1ccccc1)c1cccc(N2Cc3c(Cl)cc(CNC4(C)CCC4)cc3C2=O)c1` (single isomer, unassigned) [Compound 410], for which the IC50 against Cbl-b (Example 121) was 4.5 µM; on c-Cbl, 15 µM. Also, the “(fold-selectivity) Cbl-b and C-Cbl Selectivity” value at Cbl-b amounted to 3.4x.
Consider `Cn1cnnc1[C@](O)(c1ccccc1)c1cccc(N2Cc3c(Cl)cc(CNC4(C)CCC4)cc3C2=O)c1` (single isomer, unassigned) [Compound 411], for which the IC50 against Cbl-b (Example 121) is at least 20 µM; at c-Cbl, 20 µM. Further, on Cbl-b, the “(fold-selectivity) Cbl-b and C-Cbl Selectivity” value is reported as 1.0x.
For `Cn1cnnc1[C@H](c1cccc(N2Cc3c(cc(CNC4(C)CCC4)cc3C(F)(F)F)C2=O)c1)C1(O)CCC1` (single isomer, unassigned) [Compound 428], in that order: 5.3 µM, 20 µM and 3.8x.
For the compound `Cn1cnnc1[C@H](c1cccc(N2Cc3c(cc([C@@H](NC4(C)CCC4)C4CCC4)cc3C(F)(F)F)C2=O)c1)C1COC1` (single isomer, unassigned) [Compound 435], the IC50 against Cbl-b (Example 121) amounted to 8.5 µM; on c-Cbl, 20 µM. Besides, at Cbl-b, the “(fold-selectivity) Cbl-b and C-Cbl Selectivity” value came out at 2.4x.
`CC1(NCc2cc3c(c(C(F)(F)F)c2)CN(c2cccc([C@H](C4COC4)n4ccnn4)c2)C3=O)CCC1` (single isomer, unassigned) [Compound 437]: the 50% inhibitory concentration (IC50) against Cbl-b (Example 121) was at least 20 µM; against c-Cbl it was 20 µM. Further, the “(fold-selectivity) Cbl-b and C-Cbl Selectivity” value on Cbl-b was found to be 1.0x.
The corresponding values for `Cn1cnnc1[C@@H](c1cccc(N2Cc3c(cc(CNC4(C)CCC4)cc3C(F)(F)F)C2=O)c1)[C@@H]1CCS(=O)(=O)C1` (single isomer, unassigned) [Compound 438] are 3 µM, 20 µM and 6.8x.
Consider `Cn1cnnc1[C@H](c1cccc(N2Cc3c(cc(CNC4(C)CCC4)cc3C(F)(F)F)C2=O)c1)[C@@H]1CCS(=O)(=O)C1` (single isomer, unassigned) [Compound 439], for which the half-inhibitory concentration (IC50) on Cbl-b (Example 121) was found to be 14 µM; on c-Cbl, 20 µM. Moreover, the “(fold-selectivity) Cbl-b and C-Cbl Selectivity” value at Cbl-b was 1.4 x.
In the case of `CC1(NCc2cc3c(c(C(F)(F)F)c2)CN(c2cccc([C@H](c4nnc[nH]4)C4COC4)c2)C3=O)CCC1` (single isomer, unassigned) [Compound 440], the half-maximal inhibitory concentration (IC50) against Cbl-b (Example 121) turned out to be 0.066 µM; against c-Cbl, 0.4 µM. Moreover, at Cbl-b, the “(fold-selectivity) Cbl-b and C-Cbl Selectivity” value is 6.0x.
Turning to `CC1(NCc2cc3c(c(C(F)(F)F)c2)CN(c2cccc([C@@H](c4nnc[nH]4)C4COC4)c2)C3=O)CCC1` (single isomer, unassigned) [Compound 441], the IC50 against Cbl-b (Example 121) turned out to be 6.3 µM; against c-Cbl it was 20 µM. At Cbl-b, the “(fold-selectivity) Cbl-b and C-Cbl Selectivity” value was found to be 3.2x.
Regarding `Cn1cnnc1[C@H](c1cccc(N2Cc3c(cc([C@@H](NC4(C)CCC4)C4CC4)cc3C(F)(F)F)C2=O)c1)C1COC1` (single isomer, unassigned) [Compound 457], the figures for the IC50 against Cbl-b (Example 121) and against c-Cbl were 7.1 µM and 11 µM, respectively. Further, the “(fold-selectivity) Cbl-b and C-Cbl Selectivity” value at Cbl-b came out at 1.6x.
As to `Cn1cnnc1[C@@H](c1cccc(N2Cc3c(cc(CNCC4(C)CC4)cc3C(F)(F)F)C2=O)c1)C1COC1` (single isomer, unassigned) [Compound 465], the IC50 at Cbl-b (Example 121) was 0.0066 µM; against c-Cbl, 0.012 µM. Besides, the “(fold-selectivity) Cbl-b and C-Cbl Selectivity” value on Cbl-b was 1.8x.
The corresponding values for `Cn1cnnc1[C@@H](c1cccc(N2Cc3c(cc(CN[C@@H]4C[C@@H]5C[C@@H]5C4)cc3C(F)(F)F)C2=O)c1)C1COC1` (single isomer, unassigned) [Compound 469] are 0.0053 µM, 0.0045 µM and 0.85x.
For `Cn1cnnc1[C@@H](c1cccc(N2Cc3c(cc(CN[C@H]4[C@@H]5COC[C@@H]54)cc3C(F)(F)F)C2=O)c1)C1COC1` (single isomer, unassigned) [Compound 472], in that order: 0.013 µM, 0.042 µM and 3.2x.
Take `CCOc1cc([C@]2(c3nncn3C)C[C@@H](C)C2)cc(N2Cc3c(cc(CNC4(C)CCC4)cc3C(F)(F)F)C2=O)n1` [Compound 3, 2-(6-ethoxy-4-((1s,3s)-3-methyl-1-(4-methyl-4H-1,2,4-triazol-3-yl)cyclobutyl)pyridin-2-yl)-6-(((1-methylcyclobutyl)amino)methyl)-4-(trifluoromethyl)isoindolin-1-one]: on Cbl-b, the concentration for half-maximal inhibition (IC50) is 0.0036 µM and the “fold-selectivity (Cbl-b over C-cbl)” value is “(0.69x)”. In addition, on c-Cbl, the midpoint of inhibition, the IC50, lay at 0.0025 µM.
For `CCOc1cc([C@]2(c3nncn3C)C[C@H](C)C2)cc(N2Cc3c(cc(CNC4(C)CCC4)cc3C(F)(F)F)C2=O)n1` [Compound 4, 2-(6-ethoxy-4-((1r,3r)-3-methyl-1-(4-methyl-4H-1,2,4-triazol-3-yl)cyclobutyl)pyridin-2-yl)-6-(((1-methylcyclobutyl)amino)methyl)-4-(trifluoromethyl)isoindolin-1-one], in that order: 0.0066 µM, “(0.91x)” and 0.006 µM.
